Broadly, the GI50 is the concentration giving 50% growth inhibition.

Some test systems named below: SNB-75; NCI/ADR-RES; SF-268; MDA-MB-435; U-251; SF-539; K562; SN12C; UACC-257; UO-31; HL-60; SR; NCI-H23; NCI-H460; MCF7; UACC-62; SK-OV-3; Hs-578T; EKVX; NCI-H522.
Experiment in all cases: DTP human tumour cell line panel, 48 h

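Briefly, cells in 96-well plates were exposed to five compound concentrations for 48 h, and endpoints were estimated by linear interpolation. GI50 = concentration required for 50% inhibition of growth.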 The source made the active and inactive calls. Cut-off read from the data, not from the text of the source: active = GI50 up to about 1.1 µM and inactive = higher. Some results are limits rather than exact numbers.

In the case of `Cc1ccc(/N=N/c2c(C)c(C#N)c(=S)n(C3OC(CO)C(O)C(O)C3O)c2C)cc1` (stereo not drawn), the GI50 in the experiment with SNB-75 is 25.4 µM (inactive); with NCI/ADR-RES, 30.5 µM (inactive); with SF-268, 50.1 µM (inactive); in the experiment on MDA-MB-435, 24.6 µM (inactive); with U-251, 21.2 µM (inactive); in the experiment with SF-539 it was 40.9 µM (inactive). Moreover, the GI50 with K562 was 18.4 µM (inactive); with SN12C, 28.2 µM (inactive); in the experiment with UACC-257, 63 µM (inactive); with UO-31 it was 37.5 µM (inactive); in the experiment with HL-60 it was 59.6 µM (inactive); with SR it was 26 µM (inactive). For the same compound, the GI50 in the experiment with NCI-H23 was 32.1 µM (inactive); in the experiment on NCI-H460, 23.7 µM (inactive); in the experiment with MCF7 it was 35.6 µM (inactive); with UACC-62 it was 13.5 µM (inactive); with SK-OV-3, 34.7 µM (inactive); in the experiment on Hs-578T it was 17 µM (inactive).
Turning to `O=C(Cn1c2c(c3ccccc31)CCCC2)NC1CCCCC1`, the GI50 with NCI/ADR-RES was > 100 µM (inactive); with SF-268, 77.3 µM (inactive); in the experiment with MDA-MB-435, > 100 µM (inactive); in the experiment on SF-539, > 100 µM (inactive); with K562, > 100 µM (inactive); in the experiment on SN12C it was > 100 µM (inactive). The GI50 was > 100 µM (inactive) with UACC-257; > 100 µM (inactive) in the experiment on UO-31; 0.405 µM (active) with HL-60; > 100 µM (inactive) with NCI-H23; > 100 µM (inactive) in the experiment with EKVX; > 100 µM (inactive) with NCI-H460. Further, the GI50 with MCF7 was > 100 µM (inactive); in the experiment on UACC-62, 56.4 µM (inactive); in the experiment on SK-OV-3 it was 45.9 µM (inactive); in the experiment on Hs-578T, 55 µM (inactive).
In the case of `O=C(OC1C(Oc2ccccc2COC(=O)C2(O)C=CCCC2=O)OC(CO)C(O)C1O)c1ccccc1` (stereo not drawn), the GI50 in the experiment with SNB-75 is 7.13 µM (inactive); with NCI/ADR-RES, 34.8 µM (inactive); in the experiment with SF-268, 13.2 µM (inactive); in the experiment with MDA-MB-435, 27.5 µM (inactive); in the experiment on U-251, 20.8 µM (inactive); with SF-539, 29.6 µM (inactive). In addition, the GI50 in the experiment with NCI-H522 was 17.7 µM (inactive); in the experiment with K562 it was 34.4 µM (inactive); in the experiment on SN12C it was 25.9 µM (inactive); in the experiment with UACC-257, 46.5 µM (inactive); in the experiment with UO-31, 26.5 µM (inactive); in the experiment with HL-60 it was 23.6 µM (inactive). The GI50 in the experiment with SR was 19.4 µM (inactive); in the experiment with NCI-H23 it was 26.4 µM (inactive); in the experiment with NCI-H460, 22.3 µM (inactive); in the experiment on UACC-62, 40.2 µM (inactive); in the experiment on SK-OV-3 it was 33.9 µM (inactive); in the experiment with Hs-578T, 13.5 µM (inactive).
Consider `Cc1cc(-c2[nH]c(C(=O)O)cc2I)on1`, for which the GI50 in the experiment with SNB-75 was 24.8 µM (inactive); in the experiment on NCI/ADR-RES, > 100 µM (inactive); with SF-268 it was 68.7 µM (inactive); in the experiment on MDA-MB-435, > 100 µM (inactive); with U-251 it was 40.9 µM (inactive); in the experiment with NCI-H522, > 100 µM (inactive). The GI50 in the experiment with K562 is > 100 µM (inactive); with UACC-257, > 100 µM (inactive); in the experiment on UO-31, 40.5 µM (inactive); in the experiment with NCI-H23 it was 51.2 µM (inactive); in the experiment on EKVX it was 51.6 µM (inactive); in the experiment with NCI-H460 it was > 100 µM (inactive). Moreover, the GI50 with MCF7 was > 100 µM (inactive); in the experiment with UACC-62 it was 53.8 µM (inactive); in the experiment on SK-OV-3, 76 µM (inactive); in the experiment on Hs-578T, 67.9 µM (inactive).
Turning to `CC(=O)NC1(C)C(C)C2CC1C(C)C2(C)C` (stereo not drawn), the GI50 in the experiment with SNB-75, with SF-268, in the experiment on MDA-MB-435, in the experiment on U-251, in the experiment with SF-539 and in the experiment with NCI-H522 was > 100 µM (inactive) in each case. For the same compound, the GI50 with K562, with SN12C, in the experiment with UACC-257, in the experiment with UO-31, with HL-60 and in the experiment with SR was > 100 µM (inactive) each time. In addition, the GI50 in the experiment with NCI-H23, in the experiment with EKVX, with NCI-H460, in the experiment with MCF7, in the experiment with UACC-62 and with SK-OV-3 was > 100 µM (inactive) throughout. The GI50 with Hs-578T is > 100 µM (inactive).
Regarding `COC(=O)Cc1c([C@H]2[C@H](CC(=O)OC)c3ccccc3N2C(C)=O)[nH]c2ccccc12`, the GI50 in the experiment on SNB-75 was > 100 µM (inactive); with NCI/ADR-RES, > 100 µM (inactive); with SF-268, > 100 µM (inactive); in the experiment on MDA-MB-435, > 100 µM (inactive); in the experiment with U-251, 91.2 µM (inactive); with SF-539, > 100 µM (inactive). The GI50 was 71 µM (inactive) in the experiment on NCI-H522; 50.8 µM (inactive) with K562; > 100 µM (inactive) in the experiment on SN12C; > 100 µM (inactive) with UACC-257; 39.9 µM (inactive) in the experiment on UO-31; 85.3 µM (inactive) in the experiment with HL-60. In addition, the GI50 in the experiment on NCI-H23 is 50.9 µM (inactive); in the experiment on EKVX, > 100 µM (inactive); with NCI-H460 it was 96.8 µM (inactive); in the experiment with UACC-62 it was > 100 µM (inactive); with SK-OV-3, > 100 µM (inactive); in the experiment on Hs-578T, > 100 µM (inactive).
Regarding `COC(=O)c1c(C)cccc1C1CN=NC12Cc1cc(C)cc(C)c1C2=O` (stereo not drawn), the GI50 in the experiment on SNB-75 is 27 µM (inactive); in the experiment with NCI/ADR-RES, 25.2 µM (inactive); with SF-268 it was 52.2 µM (inactive); with MDA-MB-435, 37.2 µM (inactive); in the experiment on U-251, 44.7 µM (inactive); in the experiment with SF-539 it was 41.3 µM (inactive). In addition, the GI50 in the experiment with NCI-H522 is 9.46 µM (inactive); in the experiment on K562, 30.2 µM (inactive); in the experiment on SN12C, 41.8 µM (inactive); with UACC-257, 22.9 µM (inactive); in the experiment on UO-31 it was 28.4 µM (inactive); with HL-60 it was 20 µM (inactive). The GI50 is 20.7 µM (inactive) in the experiment on NCI-H23; 39.2 µM (inactive) in the experiment on EKVX; 32.1 µM (inactive) in the experiment on NCI-H460; 6.85 µM (inactive) in the experiment on MCF7; 70.6 µM (inactive) in the experiment with UACC-62; 38.5 µM (inactive) with SK-OV-3. The GI50 in the experiment on Hs-578T is 73.1 µM (inactive).
`O=C(CC(=O)N(C(=O)/C=C\c1ccccc1)c1ccc(Cl)cc1)N1N=C(c2ccccc2)C(/N=N/c2cccc([N+](=O)[O-])c2)C1=O` (stereo not drawn): the GI50 was 11.9 µM (inactive) in the experiment with SNB-75; 2.18 µM (inactive) in the experiment on NCI/ADR-RES; 4.23 µM (inactive) with SF-268; 9.82 µM (inactive) in the experiment on MDA-MB-435; 5.82 µM (inactive) with U-251; 6.07 µM (inactive) in the experiment on SF-539. Further, the GI50 was 4.65 µM (inactive) in the experiment on K562; 1.29 µM (inactive) in the experiment on SN12C; > 100 µM (inactive) in the experiment with UO-31; 2.84 µM (inactive) in the experiment on HL-60; 1.57 µM (inactive) in the experiment with SR; 8.28 µM (inactive) in the experiment on NCI-H23. Also, the GI50 with EKVX was 16.9 µM (inactive); with NCI-H460, 3.63 µM (inactive); with MCF7 it was 3.45 µM (inactive); in the experiment with UACC-62, 3.09 µM (inactive); with SK-OV-3, 6.32 µM (inactive); in the experiment with Hs-578T, 18.4 µM (inactive).
As for `O=C1c2c(ccc3c2CCC3)CC12Cc1ccccc1C2`, the GI50 is 21.5 µM (inactive) with SNB-75; 28.4 µM (inactive) in the experiment with NCI/ADR-RES; 33.7 µM (inactive) with SF-268; 13.2 µM (inactive) with MDA-MB-435; 22.2 µM (inactive) in the experiment with U-251; 12.2 µM (inactive) in the experiment on SF-539. In addition, the GI50 was 11.6 µM (inactive) in the experiment on NCI-H522; 20.5 µM (inactive) in the experiment with K562; 19.5 µM (inactive) in the experiment with SN12C; 22.1 µM (inactive) in the experiment on UACC-257; 5.27 µM (inactive) in the experiment on UO-31; 10.4 µM (inactive) with HL-60. Also, the GI50 with NCI-H23 was 20.8 µM (inactive); in the experiment with EKVX, 22.5 µM (inactive); with NCI-H460 it was 7.03 µM (inactive); with MCF7, 27.5 µM (inactive); in the experiment with SK-OV-3 it was 17.9 µM (inactive); in the experiment on Hs-578T, 21.4 µM (inactive).
In the case of `CCCCOc1ccc(S(=O)(=O)N/C(N)=N/c2ccc(Cl)cc2)cc1`, the GI50 in the experiment on SNB-75 was 17.9 µM (inactive); with NCI/ADR-RES, 16 µM (inactive); in the experiment on SF-268 it was 14.3 µM (inactive); in the experiment on U-251, 14.8 µM (inactive); in the experiment with SF-539 it was 20.9 µM (inactive); in the experiment with NCI-H522, 10.5 µM (inactive). Also, the GI50 in the experiment with K562 is 15 µM (inactive); with SN12C it was 14.9 µM (inactive); in the experiment on UACC-257, 14.1 µM (inactive); with UO-31, 14.8 µM (inactive); in the experiment on SR, 3.27 µM (inactive); in the experiment with NCI-H23 it was 15.7 µM (inactive). The GI50 is 10.3 µM (inactive) with EKVX; 17.1 µM (inactive) in the experiment on NCI-H460; 12.4 µM (inactive) with MCF7; 14.1 µM (inactive) in the experiment on UACC-62; 19.1 µM (inactive) in the experiment on SK-OV-3; 20.1 µM (inactive) in the experiment on Hs-578T.
In the case of `Cc1cc(C)c(/N=N/c2c(O)c(S(=O)(=O)O)cc3cc(S(=O)(=O)O)ccc23)cc1C`, the GI50 in the experiment with SNB-75, with NCI/ADR-RES, with SF-268, in the experiment with MDA-MB-435, in the experiment on U-251 and in the experiment on NCI-H522 was > 100 µM (inactive) each time. Also, the GI50 in the experiment on K562, in the experiment with SN12C, with UACC-257, in the experiment with UO-31, with NCI-H23 and in the experiment on EKVX was > 100 µM (inactive) throughout. Further, the GI50 in the experiment on UACC-62, in the experiment with SK-OV-3 and in the experiment on Hs-578T was > 100 µM (inactive) in each case.
